Test results from patent publication US11465987B2, “Compounds for treatment of cancer” (ONCTERNAL THERAPEUTICS, INC., priority 2012, dated 2022).
Read-outs that look alike come from different tables or passages of the source.

Experiments:
[1] = test system: PC-3_TxR xenograft; assay: In vivo PC-3/TxR xenograft; settings: PC-3/TxR mice; 17ya […], 55 30 mg/kg
[2] = test system: LNCaP human prostate cancer cell line; assay: Cytotoxicity (SRB) assay, LNCaP; format: cell-based; settings: Homo sapiens, LNCaP
Excerpt: (§1) Cells were stained with SRB solution.

[3] = test system: melanoma and prostate cancer cell lines; assay: Antiproliferative activity summarised over the cell line panel (range or average); format: cell-based; settings: read-out: IC50 range against prostate cancer cells, range over prostate cancer cell lines
[4] = test system: CYP enzymes; assay: CYP enzyme inhibition assays
[5] = test system: tubulin (colchicine, vinblastine and paclitaxel binding sites); assay: MS competition binding assay; settings: competitive mass binding assay
Excerpt: Each reaction was run in triplicate.

[6] = test system: confluent HUVEC monolayers; assay: Endothelial monolayer permeability assay; settings: FITC-dextran leakage, 1, 2, 4 h
[7] = Pharmacokinetic study in beagle dogs; settings: Dog PK, PO 5 mg/kg
[8] = test system: PC-3 human prostate cancer cell line; assay: cells; settings: Homo sapiens
Excerpt: as §1

[9] = Pharmacokinetic study in Sprague-Dawley rats; settings: Rat PK, PO 10 mg/kg
[10] = Permeability (drug-like properties)
[11] = test system: PPC-1 human prostate cancer cell line; assay: Cytotoxicity (SRB) assay, PPC-1; format: cell-based; settings: Homo sapiens
Excerpt: as §1

[12] = Pharmacokinetic study in ICR mice; settings: Mouse PK
[13] = test system: PC-3 xenograft; assay: In vivo PC-3 prostate tumor xenograft; settings: PC-3, 0.5 mg/kg q2d, day 22
[14] = test system: MES-SA/DX5 cells; assay: Growth inhibition (SRB) assay, MES-SA/Dx5; format: cell-based; settings: Homo sapiens, MES-SA/Dx5
[15] = test system: MDA-MB-435 parental nonresistant melanoma cells; assay: Cytotoxicity (SRB) assay, MDA-MB-435; format: cell-based; settings: Homo sapiens
[16] = test system: A375 human melanoma cell line; assay: Cytotoxicity (SRB) assay, A375; format: cell-based; settings: Homo sapiens
[17] = test system: MES-SA cells; assay: Growth inhibition (SRB) assay, MES-SA; format: cell-based; settings: Homo sapiens
[18] = test system: BCRP resistant cell line; assay: Cytotoxicity in BCRP-mediated resistant cell line; settings: read-out: IC50 ± SEM, HEK293-482R2
[19] = test system: MDA-MB-435/LCCMDR1 multidrug-resistant melanoma cells; assay: Cytotoxicity (SRB) assay, MDA-MB-435/LCCMDR1; format: cell-based
[20] = test system: DU 145 human prostate cancer cell line; assay: Cytotoxicity (SRB) assay, DU 145; format: cell-based; settings: Homo sapiens
Excerpt: as §1

[21] = test system: OVCAR-8 human ovarian cell line; assay: Cytotoxicity (SRB) assay, OVCAR-8; format: cell-based; settings: Table 14B, parental cell line, read-out: IC50 ± SEM, OVCAR-8
[22] = test system: B16-F1 mouse melanoma cell line; assay: Cytotoxicity (SRB) assay, B16-F1; format: cell-based; settings: Mus musculus
[23] = Rotarod test (in vivo neurotoxicity); parameters: species or system mouse; settings: ICR mice, i.p. daily; 1h 5 or 15 mg/kg, vinblastine 0.5 mg/kg
Experimental: ICR mice received training three times a day for two days to enable them to stay on the rotating rod for >120 seconds at 12 rpm. Mice were then randomized by the length of time that they could stay on the rotating rod and divided into 7-8 mice per group. […] The rotarod test was performed twice a week. […] The rod speed was increased from […] to 40 rpm over a period of 5 min. Performance was measured as the length of time that a mouse could stay on the rotating rod.

[24] = test system: HEK293-pcDNA3.1 cells; assay: Cytotoxicity assay, HEK293-pcDNA3.1 (parental line of the MRP/BCRP sublines); format: cell-based; settings: Table 14B; parental cell line; read-out: IC50 ± SEM, HEK293-pcDNA3.1
[25] = test system: A375MA2 melanoma cell line; assay: Cytotoxicity assay, A375MA2; format: cell-based; settings: Table 14B, n = 3; read-out: IC50 ± SEM, A375MA2
[26] = test system: WM-164 human melanoma cell line; assay: Cytotoxicity (SRB) assay, WM-164; format: cell-based; settings: Homo sapiens, n = 3, read-out: IC50 ± SEM, WM-164
[27] = SRB assay, prostate cancer LNCaP, read-out: IC50 LNCaP
[28] = read-out: IC50 PC-3, SRB assay, prostate cancer PC-3
[29] = PPC-1, SRB assay, prostate cancer PPC-1, read-out: IC50 PPC-1

SMILES: COc1cc(C(=O)c2csc(Nc3ccc4[nH]ccc4c3)n2)cc(OC)c1OC [compound 55, (2-(1H-INDOL-5-YLAMINO)THIAZOL-4-YL)(3,4,5-TRIMETHOXYPHENYL)METHANONE]
- body weight in words [1]: gaining weight
- IC50 [2, 27]: 13 ± 1 nM
- IC50 [3]: 7.5 to 24.1 nM
- CYP enzyme inhibition in words [4]: high IC50 values in micromolar range
- competition for tubulin binding sites in words [5]: competed effectively with colchicine
- permeability of endothelial cell monolayer in words [6]: increased permeability
- F [7]: 36%
- IC50 ([8]; 96 h, read-out: Cytotoxicity IC50, PC-3, Table 15, mean ± SD, 96 h treatment, N = 3): 16 ± 1.5 nM
- IC50 [8, 28]: 12 ± 1 nM
- IC50 ([8]; read-out: IC50 in PC3, Table 16B): 28 nM
- F [9]: 24%
- t1/2 [9]: 5.83 ± 3.57 h
- permeability in words [10]: more than adequate permeability values
- IC50 [11, 29]: 15 ± 1 nM
- t1/2 ([12]; IV 10 mg/kg): 0.767 h
- F ([12]; PO 20 mg/kg): 34%
- t1/2 ([12]; PO 20 mg/kg): 2.1 h

SMILES: CC[C@]1(O)C[C@@H]2CN(CCc3c([nH]c4ccccc34)[C@@](C(=O)OC)(c3cc4c(cc3OC)N(C)[C@H]3[C@@](O)(C(=O)OC)[C@H](OC(C)=O)[C@]5(CC)C=CCN6CC[C@]43[C@@H]65)C2)C1 [vinblastine, Vinblastine, reference compound]
- % T/C [13]: 29%
- IC50 ([14]; SRB assay): 16 nM
- IC50 ([14]; Table 7, P-gp over-expressed): 45.7 ± 5.3 nM
- IC50 ([2]; Table 7, read-out: IC50, LNCaP): 3.4 ± 0.9 nM
- IC50 ([15]; Table 14A, sensitive parent cell line, read-out: IC50 ± SEM, MDA-MB-435 (converted)): 0.4 ± 0.1 nM
- IC50 ([15]; read-out: IC50 nonresistant melanoma cell line): 0.5 to 10 nM
- IC50 ([16]; A-375, SRB assay, human melanoma A375, read-out: IC50 A375): 1 nM
- IC50 ([16]; A-375, Table 14B, n = 3, read-out: IC50 ± SEM, A375 (converted)): 1 ± 0.1 nM
- IC50 ([17]; SRB assay): 1.4 nM
- IC50 ([17]; Table 7, parental line): 2.3 ± 0.8 nM
- IC50 [18]: 25 ± 1 nM
- IC50 ([19]; Homo sapiens, MDA-MB-435/LCCMDR1, read-out: IC50 MDR melanoma cell line): 277 to 658 nM
- P-gp substrate / multidrug resistance in words ([19]; MDR melanoma line vs sensitive parent line): substrates for P-glycoprotein (P-gp)
- IC50 ([20]; DU-145, SRB assay, prostate cancer DU 145, read-out: IC50 DU 145): 1.8 nM
- IC50 ([20]; DU-145, Table 7, read-out: IC50, DU-145): 2.6 ± 1 nM
- IC50 ([20]; DU-145, Table 21, n = 3, read-out: IC50 ± SEM, Du-145): 1.8 ± 1.1 nM
- competition for tubulin binding sites in words [5]: did not inhibit the colchicine-tubulin binding
- IC50 [21]: 2 ± 0.1 nM
- IC50 ([22]; B16-F1, SRB assay, mouse melanoma B16-F1, read-out: IC50 B16-F1): 4.7 nM
- IC50 ([22]; B16-F1, Table 14A, n = 3, read-out: IC50 ± SEM, B16-F1 (converted)): 4.7 ± 0.7 nM
- IC50 ([22]; B16-F1, Table 14B, n = 3, read-out: IC50 ± SEM, B16-F1 (converted)): 5 ± 1 nM
- IC50 ([22]; B16-F1, Table 21, n = 3, read-out: IC50 ± SEM, B16-F1 (converted)): 4.7 ± 0.7 nM
- rotarod performance in words [23]: gradually reduced the time
- IC50 ([8]; read-out: IC50, PC-3, Table 7): 1.4 ± 0.3 nM
- IC50 [8, 28]: 2.1 nM
- IC50 ([8]; read-out: IC50 ± SEM, PC-3, Table 21, n = 3): 2.1 ± 0.2 nM
- IC50 [24]: 5 ± 0.1 nM
- IC50 [25]: 1 ± 0.2 nM
- IC50 ([26]; WM164, Table 14A): 0.6 ± 0.1 nM
- IC50 ([26]; WM164, Table 14B): 0.6 ± 0.1 nM
